In US12589122B2, “Methods and compositions for treating infectious, autoimmune, and allergic disease” (The University of Chicago, priority 2018, dated 2026):
“Also recorded” adds a separate entry of the source.

Key:
[1] = tested on: A. caccae_lah; assay: In vitro fermentation in PY broth, monoculture growth (OD600); type: cell-based, Anaerostipes caccae; details: 48 h; for Growth of A. caccae_lah / Growth of A. caccae_lah (OD600): monoculture; for Growth of A. caccae_lah: PY broth supplemented with 33 mM acetate and/or 40 mM lactate; for Growth of A. caccae_lah (OD600): PY broth supplemented with 10 mg/ml carbohydrates
Experimental: (§1) This method of preculture is used for all future in vitro fermentation experiments. Then 10 μl of preculture was transferred into 7 mL minimal peptone yeast (PY) broth alone or supplemented with 10 mg/ml of glucose, sucrose, lactose, cellobiose, or potato starch. All of these variations of PY were pre-reduced anaerobically prepared by Anaerobe Systems. Growth and butyrate production were measured after 48 h. […] Butyrate in solution is quantified by HPLC-UV-Vis as described in reference 61 and 62. […] These simple sugars are similar to those found in infant formula. […] These are the same formulas consumed by the healthy (Enfamil®) and CMA (Nutramigen®) infant donors and are also consumed by all mice colonized with these respective microbiomes. […] All groups were analyzed by one way ANOVA. *P<0.05, **P<0.01, ***P<0.001, ****P<0.0001 versus PY.
(§2) Other groups have shown that primary degraders, namely Bacteroides species, break down complex fibers and produce metabolites lactate and acetate which Clostridia species can then consume to produce butyrate (59). […] Growth and butyrate production were measured after 48 h. […] All groups were analyzed by one way ANOVA. *P<0.05, **P<0.01, ***P<0.001, ****P<0.0001 versus PY alone.

[2] = tested on: A. caccae_lah; assay: In vitro fermentation in PY broth, monoculture butyrate production (HPLC-UV-Vis); type: cell-based, Anaerostipes caccae; details: for lactate or acetate in the media at 48 h: A. caccae_lah monoculture, Nutramigen plus 40 mM lactate+33 mM acetate; for butyrate production by A. caccae_lah: monoculture, PY broth supplemented with 10 mg/ml carbohydrates, 48 h
Experimental: as §1, §2

[3] = tested on: A. caccae_lah; assay: Antibiotic susceptibility by growth inhibition around antibiotic discs; type: cell-based, Anaerostipes caccae; details: discs 10 μg ampicillin, 30 μg tetracycline; BHI agar, 37° C. anaerobic, six days
Experimental: Plates are incubated at 37° C. in anaerobic conditions for six days.

[4] = tested on: BLG plus CT sensitized mice, anaphylactic response to BLG challenge; type: in vivo, C3H/HeN mice
[5] = tested on: BLG-specific IgG1; assay: Serum BLG-specific IgG1 ELISA after challenge; type: in vivo, mouse; details: A. caccae monocolonized vs CMA colonized mice
Excerpt: (§3) Food allergen sensitization and challenge. Protocols were adapted from reference 7. All mice were weaned onto a plant-based mouse chow (Purina Lab Diet® 5K67) at 3 weeks of age. GF mice received autoclaved sterile water. For mice colonized with feces from infant donors, or monocolonized with A. caccae, the drinking water was replaced by formula four hours prior to colonization. Mice colonized with healthy feces or A. caccae received Enfamil®; CMA colonized mice received Nutramigen® (both from Mead Johnson). On day 0, one week post weaning (GF) or colonization (healthy/A. caccae/CMA), all mice were fasted for 4 hours and then given a gavage of 200 mM sodium bicarbonate. 30 minutes later, mice were given 20 mg BLG (Sigma) plus 10 μg CT (List Biologicals). This protocol was repeated weekly for 5 weeks. For formula-fed mice, formula was replaced by sterile water for the week after the last sensitization. Prior to challenge on day 42, mice were fasted for 4 hours and given sodium bicarbonate by gavage. Two doses of 100 mg BLG each were then administered via intragastric gavage 30 minutes apart. Core body temperature was measured in a blinded fashion prior to allergen challenge and every 5 minutes after the first challenge until at least 30 minutes after the second challenge using a rectal probe (PhysiTemp). Serum was collected 1 hour after the second challenge to measure mMCPT-1 levels.

[6] = tested on: Ror2, Fbp1, Tgfbr3, Acot12 and Me1 in ileal IECs; assay: qPCR gene expression in ileal IECs; type: in vivo, mouse; details: A. caccae monocolonized compared to GF or CMA-colonized mice
Experimental: Epithelial cell isolation. As in sensitization experiments, mice were weaned at 3 weeks of age and placed on infant formula prior to colonization. Seven days after colonization, mice were euthanized and ileum was removed. For IEC isolation, tissues were cleaned and inverted as described in ref (43). IECs were collected by inflating inverted tissue in Cell Recovery Solution (Corning) every 5 minutes for 30 minutes. IEC samples were lysed in TRIZol (ThermoFisher) and RNA was extracted with PureLink RNA Mini Kit (Ambion) plus on-column DNAse treatment (PureLink DNAse Set, Ambion).
qPCR. Gene expression was measured by qPCR as described in reference 7. In brief, cDNA was prepared from RNA using the iScript cDNA Synthesis kit (BioRad). Gene expression was measured with PowerUp SYBR green master mix (Applied Biosystems) according to the manufacturer's instructions. Primers are listed in Supplementary Table 7 (20, 50-54). Expression of genes of interest was normalized to Hprt. Relative expression was measured using ΔΔCt centered around the geometric mean; GF mice were used as a reference.

[7] = tested on: IL-13; assay: Splenocyte cytokine ELISA after BLG stimulation (IL-13); type: cell-based, mouse; details: sacrificed 24 h post challenge, stimulated 72 h with BLG; A. caccae vs CMA colonized
Experimental: (§4) For cytokine analysis spleens were harvested 24 h post challenge from A. caccae or CMA colonized mice sensitized with BLG+CT for 5 weeks. Splenocytes were stimulated at a concentration of 2×10^6 cells/ml at 37° C., 10% CO2 with 10 mg/ml BLG (Sigma) in cDMEM (with 4% FCS (HyClone), 10 mM HEPES (Gibco), 100 U/ml Penicillin/Streptomycin (Gibco) and 55 μM 2-mercaptoethanol (Gibco). Cytokine concentrations in 72 hr culture supernatants were determined by ELISA for IL-13 and IL-4 (both from Invitrogen).

[8] = tested on: mMCPT-1; assay: Serum mMCPT-1 ELISA 1 hour after second challenge; type: in vivo, mouse; details: A. caccae monocolonized compared to CMA colonized mice
Excerpt: as §3

[9] = tested on: BLG-specific IgE; assay: Serum BLG-specific IgE ELISA after challenge; type: in vivo, mouse; details: A. caccae monocolonized vs CMA colonized mice
Excerpt: as §3

[10] = tested on: IL-4; assay: Splenocyte cytokine ELISA after BLG stimulation (IL-4); type: cell-based, mouse; details: sacrificed 24 h post challenge, stimulated 72 h with BLG; A. caccae vs CMA colonized
Experimental: as §4

CC(=O)O [acetate]
Growth of A. caccae_lah [1]: significant growth | lactate or acetate in the media at 48 h [2]: no detectable

CC1(C)S[C@@H]2[C@H](NC(=O)[C@H](N)c3ccccc3)C(=O)N2[C@H]1C(=O)O [ampicillin]
antibiotic susceptibility of A. caccae_lah (zone of clearance) [3]: highly susceptible

O=C[C@H](O)[C@@H](O)[C@H](O[C@@H]1O[C@H](CO)[C@@H](O)[C@H](O)[C@H]1O)[C@H](O)CO [cellobiose]
butyrate production by A. caccae_lah [2]: not able to produce significant butyrate

CC(O)C(=O)O (centres unmarked) [lactate]
Growth of A. caccae_lah [1]: significant growth | lactate or acetate in the media at 48 h [2]: no detectable

OC[C@H]1O[C@@H](O[C@H]2[C@H](O)[C@@H](O)C(O)O[C@@H]2CO)[C@H](O)[C@@H](O)[C@H]1O (some centres unmarked) [lactose]
fermentation by A. caccae_lah in monoculture ([1]; minimal PY broth supplemented with 10 mg/ml carbohydrates): can ferment | Growth of A. caccae_lah (OD600) [1]: grew abundantly | butyrate production by A. caccae_lah [2]: produced the most butyrate

OC[C@H]1O[C@@](CO)(O[C@H]2O[C@H](CO)[C@@H](O)[C@H](O)[C@H]2O)[C@@H](O)[C@@H]1O [sucrose]
Growth of A. caccae_lah (OD600) [1]: grew abundantly | butyrate production by A. caccae_lah [2]: produced the most butyrate

Anaerostipes caccae [A. caccae]
changes in core body temperature after BLG challenge ([4]; A. caccae monocolonized compared to CMA colonized mice): significantly reduced | anaphylactic response to BLG challenge ([4]; BLG plus CT sensitized A. caccae monocolonized mice): protected against an anaphylactic response to BLG challenge; also recorded: protects against an allergic response to food | serum BLG-specific IgG1 [5]: reduced | Fbp1 gene expression in ileal IECs (qPCR) [6]: significantly upregulated | Tgfbr3 gene expression in ileal IECs (qPCR) [6]: significantly upregulated | IL-13 in culture supernatants of splenocytes [7]: reduced | serum concentrations of mMCPT-1 [8]: significantly reduced | serum BLG-specific IgE [9]: reduced | IL-4 in culture supernatants of splenocytes [10]: reduced
